Columns and labels:
Experiment in all cases: Bliss excess, mean over the matrix (fraction); higher = more synergy
T98G (Glioblastoma) = test system: T98G (Glioblastoma)
Procedure, shortened: (§1)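 Cell lines in DMEM/F12 or RPMI with 10% FBS were plated in 1536-well plates, held 24 hours at 37°C, 5% CO2, then given two-drug dose matrices for 72 hours (DMSO typically 0.2%). Viability was read by CellTiter-Glo 2.0 luminescence and scaled as inhibition from 0 (vehicle wells) to 1 (blank wells). Combination Emax is the second-highest inhibition in the matrix; Bliss excess is observed combination effect minus expected EA + EB − EA·EB, EA and EB being single-agent effects.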

[1] = test system: LB831-BLC (Bladder Carcinoma)
Procedure, shortened: as §1

[2] = test system: CaR-1 (Colorectal Carcinoma)
Procedure, shortened: as §1

NOS-1 (Osteosarcoma) = test system: NOS-1 (Osteosarcoma)
Procedure, shortened: as §1

[3] = test system: HT-1376 (Bladder Carcinoma)
Procedure, shortened: as §1

[4] = test system: LU-135 (Small Cell Lung Carcinoma)
Procedure, shortened: as §1

[5] = test system: TE-15 (Esophageal Squamous Cell Carcinoma)
Procedure, shortened: as §1

[6] = test system: SNU-5 (Gastric Carcinoma)
Procedure, shortened: as §1

NB10 (Neuroblastoma) = test system: NB10 (Neuroblastoma)
Procedure, shortened: as §1

[7] = test system: HCC-78 (Lung Adenocarcinoma)
Procedure, shortened: as §1

[8] = test system: CCRF-CEM (T-Lymphoblastic Leukemia)
Procedure, shortened: as §1

[9] = test system: KP-1N (Pancreatic Carcinoma)
Procedure, shortened: as §1

[10] = test system: COLO-205 (Colorectal Carcinoma)
Procedure, shortened: as §1

[11] = test system: OVCA420 (Ovarian Carcinoma)
Procedure, shortened: as §1

HOS (Osteosarcoma) = test system: HOS (Osteosarcoma)
Procedure, shortened: as §1

[12] = test system: RC-K8 (B-Cell Non-Hodgkin's Lymphoma)
Procedure, shortened: as §1

[13] = test system: EC-GI-10 (Esophageal Squamous Cell Carcinoma)
Procedure, shortened: as §1

[14] = test system: Daoy (Other Solid Carcinomas)
Procedure, shortened: as §1

[15] = test system: NCI-H2085 (Non-Small Cell Lung Carcinoma)
Procedure, shortened: as §1

[16] = test system: HuP-T4 (Pancreatic Carcinoma)
Procedure, shortened: as §1

SMILES	Bliss excess (T98G (Glioblastoma))	Bliss excess [1]	Bliss excess [2]	Bliss excess (NOS-1 (Osteosarcoma))	Bliss excess [3]	Bliss excess [4]	Bliss excess [5]	Bliss excess [6]	Bliss excess (NB10 (Neuroblastoma))	Bliss excess [7]	Bliss excess [8]	Bliss excess [9]	Bliss excess [10]	Bliss excess [11]	Bliss excess (HOS (Osteosarcoma))	Bliss excess [12]	Bliss excess [13]	Bliss excess [14]	Bliss excess [15]	Bliss excess [16]
CN(C)CCCOc1ccc(-c2ccc3ncc4c(c3c2)n(C2CCOCC2)c(=O)n4C)cn1 [AZD0156] + O=C(c1cc(Cc2n[nH]c(=O)c3ccccc23)ccc1F)N1CCN(C(=O)C2CC2)CC1 [Olaparib] (first compound max 3 µM, partner max 3 µM)	-0.0085	-0.0407	-0.0014	0.0594	-0.0417	0.0632	0.0576	0.015	0.334	0.109	0.158	-0.0043	0.125	0.0121	0.046	-0.0046	0.0772	0.0714	0.0267	0.125
C=CCn1c(=O)c2cnc(Nc3ccc(N4CCN(C)CC4)cc3)nc2n1-c1cccc(C(C)(C)O)n1 [AZD1775] + C1CN(CCC1(C(=O)N[C@@H](CCO)C2=CC=C(C=C2)Cl)N)C3=NC=NC4=C3C=CN4 [Capivasertib] (first compound max 3 µM, partner max 3 µM)	0.0076	-0.0434	0.0453	0.0118	0.0513	0.0467	0.0494	-0.0655	-0.18	-0.0672	0.0122	-0.0101	0.102	-0.0518	-0.0141	-0.002	0.0203	-0.0474	0.0047	-0.0779
CN(CCO)CC[C@H](CSc1ccccc1)Nc1ccc(S(=O)(=O)NC(=O)c2ccc(N3CCC([C@@H](O)c4ccccc4-c4ccc(Cl)cc4)CC3)cc2)cc1S(=O)(=O)C(F)(F)F [AZD4320] + C1CN(CCC1(C(=O)N[C@@H](CCO)C2=CC=C(C=C2)Cl)N)C3=NC=NC4=C3C=CN4 [Capivasertib] (first compound max 1 µM, 7x7, partner max 3 µM)	-0.0371	-0.0212	-0.0668	-0.0386	-0.0959	0.0051	-0.042	-0.0453	-0.0288	-0.034	0.0753	-0.0389	-0.0031	-0.0601	-0.0467	-0.0241	0.0003	0.0185	-0.0401	-0.0353
CN(CCO)CC[C@H](CSc1ccccc1)Nc1ccc(S(=O)(=O)NC(=O)c2ccc(N3CCC([C@@H](O)c4ccccc4-c4ccc(Cl)cc4)CC3)cc2)cc1S(=O)(=O)C(F)(F)F [AZD4320] + C=CCn1c(=O)c2cnc(Nc3ccc(N4CCN(C)CC4)cc3)nc2n1-c1cccc(C(C)(C)O)n1 [AZD1775] (first compound max 1 µM, partner max 1 µM)	0.0317	0.0317	-0.0375	0.0894	-0.0588	0.0636	-0.0137	0.0426	0.0304	-0.0072	0.0065	-0.0325	0.0243	-0.0291	0.0337	0.0829	-0.0597	-0.0261	-0.0212	-0.0368
COc1nnc2ccc(N3CCC(c4ccc(OCCN5CCN(C)C(=O)[C@H]5C)cc4)CC3)nn12 [AZD5153] + CN(CC[C@H](CSC1=CC=CC=C1)NC2=C(C=C(C=C2)S(=O)(=O)NC(=O)C3=CC=C(C=C3)N4CCC(CC4)[C@H](C5=CC=CC=C5C6=CC=C(C=C6)Cl)O)S(=O)(=O)C(F)(F)F)CCO [AZD4320] (first compound max 1 µM, 7x7, partner max 1 µM)				0.044		0.0221		0.0566				-0.0004	0.0335	-0.0203		-0.0145	-0.0052	0.113		0.0267
Cc1c2c(nn1C)CSCc1cc(n(C)n1)CSc1cc(c3ccccc3c1)OCCCc1c(C(=O)O)n(C)c3c-2c(Cl)ccc13 [AZD5991] + C=CCn1c(=O)c2cnc(Nc3ccc(N4CCN(C)CC4)cc3)nc2n1-c1cccc(C(C)(C)O)n1 [AZD1775] (first compound max 1 µM, partner max 1 µM)	-0.0198	-0.0044	-0.0103		0.0345	-0.0654	-0.0135	-0.0291	-0.0441	-0.0329	-0.0011	-0.0696	-0.0959	-0.0002	-0.0274	-0.0294	0.0389	0.0375	-0.0165	-0.0039
Cc1cc2ncnn2cc1Nc1ncc2c(n1)n(C1CCOCC1)c(=O)n2C [AZD7648] + O=C(c1cc(Cc2n[nH]c(=O)c3ccccc23)ccc1F)N1CCN(C(=O)C2CC2)CC1 [Olaparib] (first compound max 10 µM, 7x7, partner max 10 µM)	-0.0965	0.0067	-0.0399	-0.0278	-0.0549	0.0148	-0.0399	-0.0316	-0.0102	-0.0133	-0.0213	0.0211	-0.0345	-0.035	0.0023		-0.0478	-0.0102	-0.0444	-0.0432
COc1cccc2c1C(=O)c1c(O)c3c(c(O)c1C2=O)C[C@@](O)(C(=O)CO)C[C@@H]3O[C@H]1C[C@H](N)[C@H](O)[C@H](C)O1 [Doxorubicin] + Cc1cc2ncnn2cc1Nc1ncc2c(n1)n(C1CCOCC1)c(=O)n2C [AZD7648] (first compound max 1 µM, 7x7, partner max 10 µM)	0.0257	0.0858	0.0309	0.0202	-0.0544	0.0388	0.0507	0.007	0.0799	0.049	0.123	0.0574	-0.0041	0.0022	0.145		0.0887	0.0851	0.0299	0.0316
COc1cccc(OCCCN)c1-c1cc(Nc2cnc(C#N)cn2)n[nH]1 [Prexasertib] + C=CCn1c(=O)c2cnc(Nc3ccc(N4CCN(C)CC4)cc3)nc2n1-c1cccc(C(C)(C)O)n1 [AZD1775] (first compound max 1 µM, partner max 1 µM)	-0.0232	0.168	0.086	0.0924	-0.0538	-0.0004	0.0165	0.0491	0.13	0.0774	0.0186	0.0763	0.125	0.0044	0.0888		0.077	0.0573	0.124	0.0747
COc1cccc(OCCCN)c1-c1cc(Nc2cnc(C#N)cn2)n[nH]1 [Prexasertib] + CN(C)CCCOc1ccc(-c2ccc3ncc4c(c3c2)n(C2CCOCC2)c(=O)n4C)cn1 [AZD0156] (first compound max 1 µM, 7x7, partner max 1 µM)	0.0132	0.0252	-0.0442	0.0551	-0.007	0.0508	-0.0346	-0.0703	0.015	-0.0463	-0.058	0.0236	0.061	-0.0279	-0.0434		-0.0056	0.0208	0.006	-0.0273
COc1cccc(OCCCN)c1-c1cc(Nc2cnc(C#N)cn2)n[nH]1 [Prexasertib] + C[C@@H]1COCCN1C2=NC(=NC(=C2)C3(CC3)[S@](=N)(=O)C)C4=C5C=CNC5=NC=C4 [AZD6738] (first compound max 1 µM, 7x7, partner max 10 µM)	0.0453	0.019	0.0097	0.0721	-0.0105	0.0442	-0.0395	-0.0371	-0.0145	0.0318	-0.0013	0.0331	0.0369	-0.0214	0.0261		0.0193	0.0032	-0.0092	-0.0504
COc1cccc(OCCCN)c1-c1cc(Nc2cnc(C#N)cn2)n[nH]1 [Prexasertib] + Cc1cc2ncnn2cc1Nc1ncc2c(n1)n(C1CCOCC1)c(=O)n2C [AZD7648] (first compound max 1 µM, 7x7, partner max 10 µM)	-0.0566	-0.0865	0.0141	0.0514	-0.0373	0.025	-0.0105	-0.0111	-0.0407	-0.0841	-0.0076	-0.0207	0.0227	-0.0002	-0.0393		-0.0144	-0.009	-0.0481	0.0127
COc1cccc(OCCCN)c1-c1cc(Nc2cnc(C#N)cn2)n[nH]1 [Prexasertib] + O=C(c1cc(Cc2n[nH]c(=O)c3ccccc23)ccc1F)N1CCN(C(=O)C2CC2)CC1 [Olaparib] (first compound max 1 µM, 7x7, partner max 10 µM)	-0.134	-0.0175	-0.0635	0.0177	-0.0976	-0.0079	-0.0427	-0.0633	-0.0272	-0.0733	0.0024	0.0018	-0.0301	-0.0374	-0.0168		-0.0253	0.0261	-0.208	-0.0834
COc1cc2c(cc1OCCCCCOc1cc3c(cc1OC)C(=O)N1C=C(C)C[C@H]1C=N3)N=C[C@@H]1CC(C)=CN1C2=O [SG3199] + O=C(c1cc(Cc2n[nH]c(=O)c3ccccc23)ccc1F)N1CCN(C(=O)C2CC2)CC1 [Olaparib] (first compound max 0.001 µM, 7x7, partner max 10 µM)	-0.0486	-0.0486	-0.0429	-0.0275	-0.0503	0.0232	-0.0307	-0.0105	-0.0067	-0.0294	-0.0045	0.0163	-0.0256	-0.0268	-0.0232		-0.011	-0.0171	-0.0323	-0.0256
CCc1c2c(nc3ccc(O)cc13)-c1cc3c(c(=O)n1C2)COC(=O)[C@]3(O)CC [SN-38] + CN(C)CCCOc1ccc(-c2ccc3ncc4c(c3c2)n(C2CCOCC2)c(=O)n4C)cn1 [AZD0156] (first compound max 0.3 µM, 7x7, partner max 1 µM)	-0.03	0.0223	0.0109	-0.0111	-0.0547	-0.0201	0.0146	-0.0237	-0.0533	-0.0066	0.0508	0.0531	0.0073	-0.008	0.0114		0.0134	0.0666	-0.0026	0.0028
